Among the data in patent US20260345574A1, “POTENT AND SELECTIVE IRREVERSIBLE INHIBITORS OF IRAK1” (Dana-Farber Cancer Institute, Inc., priority 2022, published 2026) are IC50 values, retold here.

Structures are written as SMILES.

For assay [1], the target named is IRAK1 (Homo sapiens, UniProt P51617). Briefly: Adapta Universal Kinase Assay (ThermoFisher) against IRAK1. It counts as biochemical. The note with it: Histone H3 (1-20) peptide substrate, 60 minutes at room temperature. The procedure: To measure the IC50 values of the compounds herein against IRAK1, the Adapta Universal Kinase Assay (ThermoFisher) was used. Briefly, 100 nL of different concentrations of the compounds in 100% DMSO were added to each well of a 384-well plate (Corning Cat. #4512). 2.4 μL of 30 mM HEPES, 2.5 μL of 4× ATP solution (in water), and 5 μL of 2× IRAK1/Histone H3 (1-20) peptide mixture (prepared in 50 mM HEPES pH 7.5, 0.01% BRIJ-35, 10 mM MgCl2, 1 mM EGTA) were added to each well. The plate was shaken for 30 seconds and centrifuged for 1 minute at 1000×g. The plate was then incubated at room temperature for 60 minutes. 5 μL of Detection Mix was added to each well. The plate was shaken for 30 seconds and centrifuged for 1 minute at 1000×g. The plate was then incubated at room temperature for 60 minutes. The plate was subsequently read on a fluorescence plate reader, and the emissions ratio was calculated to determine the ratio of ATP to ADP. Emissions Ratio=AF647 Emission (665 nm)/Europium Emission (615 nm).

Assay [2] addresses T1, IRAK4 (Homo sapiens, UniProt Q9NWZ3).
T1 sequence (Q9NWZ3 1-460): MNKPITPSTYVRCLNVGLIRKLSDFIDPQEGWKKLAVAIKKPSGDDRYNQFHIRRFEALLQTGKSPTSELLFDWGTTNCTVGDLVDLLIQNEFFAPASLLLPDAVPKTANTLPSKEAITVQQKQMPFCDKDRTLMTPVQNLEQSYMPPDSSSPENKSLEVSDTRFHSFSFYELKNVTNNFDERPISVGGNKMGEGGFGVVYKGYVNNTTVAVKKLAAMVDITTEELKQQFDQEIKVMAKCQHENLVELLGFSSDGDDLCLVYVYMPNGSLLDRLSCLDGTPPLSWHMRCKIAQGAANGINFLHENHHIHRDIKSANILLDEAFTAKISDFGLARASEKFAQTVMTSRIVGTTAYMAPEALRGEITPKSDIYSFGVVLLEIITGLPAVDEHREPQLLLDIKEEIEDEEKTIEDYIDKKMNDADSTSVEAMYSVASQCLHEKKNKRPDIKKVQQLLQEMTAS
Kind of assay: Z'-LYTE assay (ThermoFisher) against IRAK4. It counts as biochemical. The following applies: Ser/Thr 07 substrate, 60 minutes at room temperature. The method, then: To measure the IC50 values of compounds herein against IRAK4, a Z′-LYTE assay (ThermoFisher) was used. Briefly, 2.5 μL of different concentrations of the compounds in 1% DMSO were added to 2.4 μL kinase buffer (50 mM HEPES pH 7.5, 0.01% BRIJ-35, 10 mM MgCl2, 1 mM EGTA) in each well of a 384-well plate (Corning Cat. #3676). 5 μL of 2× IRAK4/Ser/Thr 07 mixture (prepared in 50 mM HEPES pH 7.5, 0.01% BRIJ-35, 10 mM MnCl2, 2 mM DTT, and 0.02% NaN3) and 2.5 μL of 4× ATP solution (4× ATP, 50 mM HEPES, pH 7.5, 0.01% BRIJ-35, 10 mM MgCl2, 1 mM EGTA) were added to each well. The plate was shaken for 30 seconds, and then incubated at room temperature for 60 minutes. 5 μL of a 1:100000 dilution of Development Reagent A was added to each well. The plate was shaken for 30 seconds and incubated for 60 minutes at room temperature. The plate was subsequently read on a fluorescence plate reader, and the emissions ratio was calculated to determine the ratio of Ser/Thr 07 phosphorylated by the reaction. Emissions Ratio=Coumarin Emission (443 nm)/Flourescein Emission (520 nm).

IRAK1, sequence (P51617 whole entry): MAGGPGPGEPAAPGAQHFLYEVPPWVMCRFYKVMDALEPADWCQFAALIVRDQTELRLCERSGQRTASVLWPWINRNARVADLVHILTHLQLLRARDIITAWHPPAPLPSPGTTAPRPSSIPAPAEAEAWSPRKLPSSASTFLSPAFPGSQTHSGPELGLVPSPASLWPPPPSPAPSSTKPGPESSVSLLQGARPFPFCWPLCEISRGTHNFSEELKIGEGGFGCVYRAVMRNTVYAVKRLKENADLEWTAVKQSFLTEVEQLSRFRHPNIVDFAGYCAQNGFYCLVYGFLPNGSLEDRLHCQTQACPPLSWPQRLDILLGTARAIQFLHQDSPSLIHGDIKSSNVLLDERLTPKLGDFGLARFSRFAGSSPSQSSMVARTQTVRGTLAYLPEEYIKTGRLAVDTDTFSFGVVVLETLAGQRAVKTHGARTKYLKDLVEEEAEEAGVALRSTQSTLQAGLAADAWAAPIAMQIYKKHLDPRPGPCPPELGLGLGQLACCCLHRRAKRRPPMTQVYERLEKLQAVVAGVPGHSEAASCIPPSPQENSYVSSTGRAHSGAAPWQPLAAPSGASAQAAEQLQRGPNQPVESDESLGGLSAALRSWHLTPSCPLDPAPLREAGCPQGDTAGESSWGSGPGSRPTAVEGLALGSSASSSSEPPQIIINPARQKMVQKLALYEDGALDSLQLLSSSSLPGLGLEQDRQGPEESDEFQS

On to `C=CC(=O)N1CCC[C@H](c2nc(-c3ccc(NC(=O)c4cccc(-c5ccn[nH]5)n4)cc3)no2)C1` [Compound 075], for which the IC50 – broadly, the midpoint of a concentration-inhibition curve – in assay [1] was 36.6 nM; in assay [2], > 10 µM.

For `C=CC(=O)N1CCC[C@H](c2nc(-c3ccc(NC(=O)c4cccc(-c5ccn[nH]5)n4)c(F)c3)no2)C1` [Compound 076, (S)-N-(4-(5-(1-acryloylpiperidin-3-yl)-1,2,4-oxadiazol-3-yl)-2-fluorophenyl)-6-(1H-pyrazol-5-yl)picolinamide], the IC50 in assay [1] was 16.4 nM; in assay [2], > 10 µM.

In the case of `C=CC(=O)N1C[C@@H](c2nc(-c3ccc(NC(=O)c4cccc(-c5ccn[nH]5)n4)cc3)no2)C[C@@H](C(F)(F)F)C1` [Compound 078], the IC50 in assay [1] is 521 nM; in assay [2], > 10 µM.

Take `C=CC(=O)N1CCC[C@H](c2nc(-c3ccc(NC(=O)c4cccc(-c5ccn[nH]5)n4)c(Cl)c3)no2)C1` [Compound 079, (S)-N-(4-(5-(1-acryloylpiperidin-3-yl)-1,2,4-oxadiazol-3-yl)-2-chlorophenyl)-6-(1H-pyrazol-5-yl)picolinamide]: the IC50 in assay [1] was determined as 4.46 nM; in assay [2], 0.978 µM.

Take `C=CC(=O)N1CCC[C@H](c2nc(-c3ccc(NC(=O)c4cccc(-c5ccn[nH]5)n4)c(C(F)(F)F)c3)no2)C1` [Compound 080, (S)-N-(4-(5-(1-acryloylpiperidin-3-yl)-1,2,4-oxadiazol-3-yl)-2-(trifluoromethyl)phenyl)-6-(1H-pyrazol-5-yl)picolinamide]: the IC50 in assay [1] amounted to 8.25 nM; in assay [2], 3.62 µM.

For the compound `C=CC(=O)N1CCC[C@H](c2nc(-c3ccc(NC(=O)c4cccc(-c5ccn[nH]5)n4)c(OC(F)(F)F)c3)no2)C1` [Compound 081, (S)-N-(4-(5-(1-acryloylpiperidin-3-yl)-1,2,4-oxadiazol-3-yl)-2-(trifluoromethoxy)phenyl)-6-(1H-pyrazol-5-yl)picolinamide], the IC50 amounted to 9 nM in assay [1] and 0.794 µM in assay [2].

`C=CC(=O)N1C[C@@H](c2nc(-c3ccc(NC(=O)c4cccc(-c5ccn[nH]5)n4)cc3)no2)CC(F)(F)C1` [Compound 082]: the figures for the IC50 in assay [1] and in assay [2] were 17.6 nM and > 10 µM, respectively.

Turning to `C=CC(=O)N1C[C@@H](c2nc(-c3ccc(NC(=O)c4cccc(-c5ccn[nH]5)n4)cc3)no2)C[C@H](C(F)(F)F)C1` [Compound 083], the IC50 in assay [1] is 209 nM; in assay [2], > 10 µM.

For the compound `C=CC(=O)N1CCC[C@H](c2nc(-c3ccc(NC(=O)c4cccc(-c5ccn[nH]5)n4)c(OC)c3)no2)C1` [Compound 084, (S)-N-(4-(5-(1-acryloylpiperidin-3-yl)-1,2,4-oxadiazol-3-yl)-2-methoxyphenyl)-6-(1H-pyrazol-5-yl)picolinamide], the IC50 in assay [1] was determined as 1.67 nM; in assay [2], 0.204 µM.

Consider `C=CC(=O)N1CCC[C@H](c2nc(-c3ccc(NC(=O)c4cccc(-c5[nH]ncc5C)n4)cc3)no2)C1` [Compound 085, (S)-N-(4-(5-(1-acryloylpiperidin-3-yl)-1,2,4-oxadiazol-3-yl)phenyl)-6-(4-methyl-1H-pyrazol-5-yl)picolinamide], for which the IC50 in assay [1] came to 6.82 nM; in assay [2], 8.75 µM.

`C=CC(=O)N1CCC[C@H](c2nc(-c3ccc(NC(=O)c4cccc(-c5[nH]ncc5Cl)n4)cc3)no2)C1` [Compound 086, (S)-N-(4-(5-(1-acryloylpiperidin-3-yl)-1,2,4-oxadiazol-3-yl)phenyl)-6-(4-chloro-1H-pyrazol-5-yl)picolinamide]: the values for the IC50 in assay [1] and in assay [2] were 9.16 nM and > 10 µM, respectively.

As for `C=CC(=O)N1CCC[C@H](c2nc(-c3ccc(NC(=O)c4cccc(-c5cc(C#N)n(C)c5)n4)cc3)no2)C1` [Compound 087], the IC50 in assay [1] was 5720 nM; in assay [2], > 10 µM.

For `C=CC(=O)N1CCC[C@H](c2nc(-c3ccc(NC(=O)c4cccc(-c5[nH]ncc5C)n4)c(F)c3)no2)C1` [Compound 088, (S)-N-(4-(5-(1-acryloylpiperidin-3-yl)-1,2,4-oxadiazol-3-yl)-2-fluorophenyl)-6-(4-methyl-1H-pyrazol-5-yl)picolinamide], the IC50 in assay [1] is 12.7 nM; in assay [2], > 10 µM.
